This note sets out measurements from ChEMBL document CHEMBL3508140 (2016).

Holding throughout (assay type): ADME, organism-based, Canis lupus familiaris
Data set [1] can be described thus: Terminal half-life of carminomycin following intravenous carminomycin at 1.0 mg.Kg-1 dose in dog. Further details: dose 1 mg.Kg-1, dosed compound id 2.46809e+06, dosed compound name Carminomycin, route intravenous. Conditions: Beagle, plasma.
Data set [2] is described as follows: Volume of distribution of carminomycin following intravenous carminomycin at 1.0 mg.Kg-1 dose in dog. Further details: dose 1 mg.Kg-1, dosed compound id 2.46809e+06, dosed compound name Carminomycin, route intravenous. Conditions: Beagle, plasma.
Data set [3] can be described thus: Plasma clearance of carminomycin following intravenous carminomycin at 1.0 mg.Kg-1 dose in dog. Further details: dose 1 mg.Kg-1, dosed compound id 2.46809e+06, dosed compound name Carminomycin, route intravenous. Conditions: Beagle, read-out: Clp.
Data set [4] can be described thus: Terminal half-life of daunorubicin following intravenous daunorubicin at 1.2 mg.Kg-1 dose in dog. Further details: dose 1.2 mg.Kg-1, dosed compound id 2.46809e+06, dosed compound name Daunorubicin, route intravenous. Conditions: Beagle, plasma.
Data set [5] can be described thus: Volume of distribution of daunorubicin following intravenous daunorubicin at 1.2 mg.Kg-1 dose in dog. Further details: dose 1.2 mg.Kg-1, dosed compound id 2.46809e+06, dosed compound name Daunorubicin, route intravenous. Conditions: Beagle, plasma.
Data set [6] can be described thus: Plasma clearance of daunorubicin following intravenous daunorubicin at 1.2 mg.Kg-1 dose in dog. The note with it: Beagle, read-out: Clp. Further details: dose 1.2 mg.Kg-1, dosed compound id 2.46809e+06, dosed compound name Daunorubicin, route intravenous.
Data set [7] in a line: Mean terminal half-life for ADR-529 following intravenous epirubicin at 0.5 mg.Kg-1 dose administered approximately 25 minute prior to epirubicin once weekly for four weeks in dog. Conditions: Beagle, plasma.
A short description of data set [8]: Mean terminal half-life for ADR-529 following intravenous epirubicin at 1 mg.Kg-1 dose administered approximately 25 minute prior to epirubicin once weekly for four weeks in dog. The note with it: Beagle, plasma.
Data set [9] in a line: AUC (2-8 h) of ADR-529 following intravenous ADR-529 at 10 mg.Kg-1 dose administered approximately 25 minute prior to epirubicin once weekly for four weeks in dog. Further details: dose 10 mgKg-1, dosed compound id 2.4681e+06, dosed compound name Dexrazoxane, dose level Intermediate, route intravenous, sampling time 8 h, study doses 5/10/20 mgKg-1. The note with it: Beagle, plasma.

A short description of data set [10]: AUC (2-8 h) of ADR-529 following intravenous ADR-529 at 20 mg.Kg-1 dose administered approximately 25 minute prior to epirubicin once weekly for four weeks in dog. Further details: dose 20 mgKg-1, dosed compound id 2.4681e+06, dosed compound name Dexrazoxane, dose level High, route intravenous, sampling time 8 h, study doses 5/10/20 mgKg-1. The note with it: Beagle, plasma.

For orientation: half-life means how long it takes for the measured level to halve. A high value points to slow loss. The term Vd denotes the apparent volume that relates the amount in the body to the concentration in plasma or blood. High values mean wide distribution into tissue, low ones little distribution into tissue. `CC(=O)[C@]1(O)Cc2c(O)c3c(c(O)c2[C@@H](O[C@H]2C[C@H](N)[C@H](O)[C@H](C)O2)C1)C(=O)c1c(O)cccc1C3=O` [CARUBICIN] displayed a half-life in data set [1] of 20.3 min. In data set [2], this compound showed a Vd of 98.5 L/kg. Further, the clearance in data set [3] came to 1360 mL/min.

Turning to `COc1cccc2c1C(=O)c1c(O)c3c(c(O)c1C2=O)C[C@@](O)(C(C)=O)C[C@@H]3O[C@H]1C[C@H](N)[C@H](O)[C@H](C)O1` [DAUNORUBICIN], the half-life in data set [4] is 5.3 min. The compound also yielded a distribution volume (Vd) in data set [5] of 51 L/kg. Further, the clearance in data set [6] was determined as 2030 mL/min.

The AUC is concentration integrated over time. Consider `C[C@@H](CN1CC(=O)NC(=O)C1)N1CC(=O)NC(=O)C1` [DEXRAZOXANE], for which the half-life is 108 min in data set [7] and 72 min in [8]. Moreover, the area under the curve (AUC) is 2710 ng·h/mL in data set [9] and 5570 ng·h/mL in data set [10].
